Results on one compound are retold here after publication PMC12948223, “HSP70 Interactome‐Mediated Proteolysis Targeting Chimera (HSP70‐PROTAC) for Ferroptosis‐Driven Cancer Treatment” (Advanced Science, 2025).

The Kd is the constant that tells how readily two partners part at equilibrium. A low value points to higher affinity. The IC50 is the concentration at which inhibition is half-maximal.

The target in one assay is T1, human Hsc70 (Homo sapiens, UniProt P11142).
T1 construct: purchased MedChemExpress HY-P73915A
T1 sequence (P11142 whole entry): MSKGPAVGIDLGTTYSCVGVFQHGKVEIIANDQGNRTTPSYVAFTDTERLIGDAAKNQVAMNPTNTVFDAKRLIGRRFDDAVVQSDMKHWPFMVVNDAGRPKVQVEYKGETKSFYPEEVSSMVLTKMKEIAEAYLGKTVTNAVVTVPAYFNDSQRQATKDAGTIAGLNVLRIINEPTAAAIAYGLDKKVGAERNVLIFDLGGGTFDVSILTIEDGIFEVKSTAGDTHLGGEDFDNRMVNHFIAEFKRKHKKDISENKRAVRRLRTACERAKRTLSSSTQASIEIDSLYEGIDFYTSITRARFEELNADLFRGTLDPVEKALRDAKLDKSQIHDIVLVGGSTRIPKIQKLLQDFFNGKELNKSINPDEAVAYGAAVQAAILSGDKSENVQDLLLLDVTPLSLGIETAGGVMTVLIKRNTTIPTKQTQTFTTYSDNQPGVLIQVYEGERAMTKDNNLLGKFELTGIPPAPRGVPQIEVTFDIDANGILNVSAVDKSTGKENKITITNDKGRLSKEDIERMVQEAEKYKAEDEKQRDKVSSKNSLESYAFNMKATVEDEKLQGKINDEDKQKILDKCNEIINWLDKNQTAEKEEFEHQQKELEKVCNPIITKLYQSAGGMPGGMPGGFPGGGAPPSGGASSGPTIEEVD
As to the kind of experiment: SPR binding to immobilized Hsc70 (binary). The conditions noted are these: immobilized Hsc70, 25 °C. How it is done: The SPR data was generated by our Shared Instrumentation Core Facility at the Hangzhou Institute of Medicine (HIM), Chinese Academy of Sciences. The in vitro binding affinity of compound GDAz‐3 to recombinant proteins (Hsc70, MedChemExpress, #HY‐P73915A; GPX4, Cayman, Item No. 26 906) was evaluated using a Biacore 8K system (Cytiva (GE)) with the method of LMW multi‐cycle kinetics/affinity. Pipelines and chips were flushed with PBS (pH 7.4) running buffer, and then, human Hsc70 was immobilized on a CM5 sensor chip. Analysis was performed at a flow rate of 30 µL min^−1 at 25 °C with the injection of incremental concentrations of compounds dissolved in buffer solution (the final concentration of DMSO was 5%). For ternary‐complex binding measurements, Hsc70 was immobilized on a CM5 sensor chip, and compound GDAz‐3 at a concentration of 1 µM was preincubated with GPX4. The binding and dissociation durations were recorded as response unit values for 120 and 120 s in succession, respectively. Finally, the data were analyzed by Biacore evaluation software with the method of LMW multi‐cycle kinetics/affinity.
Background: In SPR one partner is held on a chip, and binding of the other changes the refractive index at the surface.

The test system of another assay is GPX4 mRNA. Kind of assay: Real-time qRT-PCR of GPX4 mRNA in HT1080 cells. The format is cell-based, human. The conditions noted are these: HT1080 cells, 0.1, 0.3, 1 and 3 µM, 24 h. How it is done: Real‐time qRT‐PCR was used to determine the mRNA expression level of GPX4 gene in HT1080 cells. In brief, HT1080 cells were seeded in 6‐well plates at a density of 4.5 × 10^5 cells per well and allowed to adhere overnight. Subsequently, the cells were exposed to different concentrations of the test compound GDAz‐3 for 24 h. Total RNA from the various cell samples was extracted using an RNA‐Quick Purification Kit (#RC112, Vazyme, Nanjing, China) according to the manufacturer's instructions. The concentrations of the isolated RNA samples were determined using NanoDrop. A total of 2 µg RNA was used to synthesize cDNA using Fast‐All‐in‐One RT Kit (#RT001, ES Science, Shanghai) following the manufacturer's guidelines. Real‐time PCR was performed using 2xSuper SYBR Green QPCR Master Mix (#QP002, ES Science, Shanghai) and determined using a CFX96 PCR instrument with the following cycling conditions: 95 °C for 5 min, 95 °C for 10 s, and 60 °C for 30 s, 40 cycles. The data were analyzed by Bio‐Rad CFX Manager Software version 3.1. The primers used in this experiment were as follows: […]

Another assay has as its target T2, GPX1 (Homo sapiens, UniProt P07203).
T2 construct: endogenous in cells; host or cells: HT1080
T2 sequence (P07203 1-203): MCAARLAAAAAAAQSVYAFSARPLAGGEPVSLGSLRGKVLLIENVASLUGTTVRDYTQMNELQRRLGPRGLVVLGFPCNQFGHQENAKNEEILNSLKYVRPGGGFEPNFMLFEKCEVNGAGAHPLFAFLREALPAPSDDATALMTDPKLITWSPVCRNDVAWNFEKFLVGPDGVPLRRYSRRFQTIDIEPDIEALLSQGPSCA
Kind of assay: Western blot of GPX1 in HT1080 cells. In kind it is cell-based. Conditions: 24 h.

Another assay deals with intracellular LPO. As to the kind of experiment: Intracellular LPO (C11-BODIPY 581/591, flow cytometry) in HT1080 cells. The format is cell-based, human. The conditions noted are these: 12 h. As to the method:
The level of LPO was determined by flow cytometry using the C11‐BODIPY^581/591 dye. In short, HT1080 cells were incubated in 6‐well plates at a density of 5 × 10^4 cells per well for 24 h. After that, the culture medium was substituted with a fresh medium containing GDAz‐3, ML162, or a mixture of GDAz‐3 and Fer‐1 at the specified concentrations. Following a 12‐h incubation period, HT1080 cells were stained with C11‐BODIPY^581/591 dye for 10 min. Finally, the cell samples were collected, washed twice with phosphate‐buffered saline (PBS), and then analyzed by flow cytometry.
For orientation: Flow cytometry measures light scatter and fluorescence of single cells or particles in a stream.

The next assay deals with MDA. As to the kind of experiment: MDA content in HT1080 cells. The format is cell-based, human. The conditions noted are these: HT1080 cells, 0.1, 0.5 and 1 µM, 24 h. As to the method:
HT1080 cells were seeded into 10‐cm diameter culture dishes at a density of 2 × 10⁶ cells overnight and then exposed to GDAz‐3 (0.1, 0.5, and 1 µM). The cells were cultured for another 24 h, and the culture medium was discarded, washed with PBS, and lysed using IP lysis buffer (Servicebio, G2038). After lysis, the samples were centrifuged at 12 000 × g for 15 min at 4 °C. The supernatant was collected, and the MDA content was determined according to the instructions of the Lipid Peroxidation MDA Assay Kit (Beyotime Biotechnology, S00131S).

Another assay has as its system HT1080 cells. As to the kind of experiment: Cell viability CCK-8 assay. The format is cell-based, human. The conditions noted are these: Homo sapiens, HT-1080, CCK-8, 48 h, read-out: IC50 (cytotoxicity). The essentials:
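HT1080 cells seeded 24 h, then exposed to serial compound dilutions (final DMSO <0.5% v/v) for 48 or 72 h at 37 °C. Viability by CCK-8 absorbance at 450 nm; IC50 from nonlinear regression, ≥3 independent repeats.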
(In general: Tetrazolium assays rely on reduction of a dye to a coloured formazan, in cell work by metabolically active cells.)

A further assay relates to intracellular ROS. As to the kind of experiment: Intracellular ROS (DCFH-DA, CLSM) in HT1080 cells. The format is cell-based, human. The conditions noted are these: 1 µM, 24 h. How it is done:
To assess the total intracellular levels of reactive oxygen species (ROS), a DCFH‐DA (Dichloro‐dihydro‐fluorescein diacetate) assay kit was utilized. Briefly, HT1080 cells were seeded into confocal laser culture dishes and allowed to adhere for 24 h. Afterward, the cells were treated with GDAz‐3 at a concentration of 1 µM for 24 h. Subsequently, a DCFH‐DA probe was added to the cells and they were incubated for 20 min. After washing twice with PBS, the cells were visualized and imaged using a confocal laser scanning microscopy (CLSM).

`COc1ccc(-c2nc(-c3cc(C(F)(F)F)cc(C(F)(F)F)c3)n(Cc3ccc(C(=O)NCCOCCOCCOCCn4cc(COc5ccc(N(C(=O)CCl)C(C(=O)NCCc6ccccc6)c6cccs6)cc5Cl)nn4)cc3)c2-c2ccc(OC)cc2)cc1` (stereo not shown) [GDAz-3, 4-((2-(3,5-bis(trifluoromethyl)phenyl)-4,5-bis(4-methoxyphenyl)-1H-imidazol-1-yl)methyl)-N-(2-(2-(2-(2-(4-((2-chloro-4-(2-chloro-N-(2-oxo-2-(phenethylamino)-1-(thiophen-2-yl)ethyl)acetamido)phenoxy)methyl)-1H-1,2,3-triazol-1-yl)ethoxy)ethoxy)ethoxy)ethyl)benzamide] gave a Kd at human Hsc70 of 18 nM. Besides, in the assay on GPX4 mRNA, the “Level of GPX4 mRNA” value was “did not significantly affect”. The “Effect on GPX1 protein” value at GPX1 is recorded as “did not show a significant effect”. Further, the “Fluorescence intensity of C11-BODIPY 581/591 (lipid peroxidation)” value in the assay on intracellular LPO is given as “markedly enhanced”. Moreover, in the assay with MDA, the “Content of MDA” value was “increased”. Further, the IC50 in the assay on HT1080 cells was determined as 280 nM. In addition, the “Level of intracellular ROS” value with intracellular ROS was “enhanced”.
